Measurements: BindingDB's records for doi:10.7270/Q2QF8R9S (Vanderbilt Screening Center For Gpcrs, Ion Channels and …, 2010)

Target: T1, Muscarinic acetylcholine receptor M1 (Rattus norvegicus, UniProt P08482)
T1 sequence (P08482 whole entry): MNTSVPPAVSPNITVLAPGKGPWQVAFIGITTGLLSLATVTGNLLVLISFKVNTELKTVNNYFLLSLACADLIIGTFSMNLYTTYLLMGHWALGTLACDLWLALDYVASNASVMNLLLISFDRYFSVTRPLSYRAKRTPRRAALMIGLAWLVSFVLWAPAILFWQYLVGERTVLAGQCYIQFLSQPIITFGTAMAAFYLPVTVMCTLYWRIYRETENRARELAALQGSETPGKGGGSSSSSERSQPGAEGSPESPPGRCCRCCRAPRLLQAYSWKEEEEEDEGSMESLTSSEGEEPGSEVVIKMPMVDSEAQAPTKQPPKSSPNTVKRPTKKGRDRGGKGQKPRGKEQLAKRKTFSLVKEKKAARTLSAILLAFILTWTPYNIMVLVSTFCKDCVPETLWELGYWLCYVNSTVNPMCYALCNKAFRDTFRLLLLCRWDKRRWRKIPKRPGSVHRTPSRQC
Assay: structure-activity potentiation of ACh at M1 – cell-based, calcium mobilization, CHO-K1, SAR follow-up (AID 2651)

Row | SMILES | EC50 | EC50 (inactive by the depositor's call)
1 | Cc1cc(NC(=O)CS(=O)(=O)c2cn(Cc3cccc(F)c3)c3ccccc23)no1 [2-[[1-[(3-fluorophenyl)methyl]-3-indolyl]sulfonyl]-N-(5-methyl-3-isoxazolyl)acetamide] | 5.22 µM | 
2 | Cc1cc(NC(=O)CS(=O)(=O)c2cn(Cc3cc(-c4cc[nH]n4)ccc3F)c3ccccc23)no1 [2-[[1-[[2-fluoro-5-(1H-pyrazol-5-yl)phenyl]methyl]-3-indolyl]sulfonyl]-N-(5-methyl-3-isoxazolyl)acetamide] | 3.07 µM | 
3 | Cc1cc(NC(=O)CS(=O)(=O)c2cn(Cc3cccc(Br)c3)c3ccccc23)no1 [2-[[1-[(3-bromophenyl)methyl]-3-indolyl]sulfonyl]-N-(5-methyl-3-isoxazolyl)acetamide] | 3.79 µM | 
4 | Cc1cc(NC(=O)CS(=O)(=O)c2cn(Cc3ccccc3Cl)c3ccccc23)no1 [2-[1-[(2-chlorophenyl)methyl]indol-3-yl]sulfonyl-N-(5-methyl-1,2-oxazol-3-yl)acetamide] | 10 µM | 
5 | Cc1cc(NC(=O)CS(=O)(=O)c2cn(Cc3cccc(-c4cn[nH]c4)c3)c3cc(F)cc(F)c23)no1 [VU0405645-1] | 1.85 µM | 
6 | Cc1cc(NC(=O)CS(=O)(=O)c2cn(Cc3cc(Br)ccc3F)c3ccccc23)no1 [2-[[1-[(5-bromo-2-fluorophenyl)methyl]-3-indolyl]sulfonyl]-N-(5-methyl-3-isoxazolyl)acetamide] | 1.38 µM | 
7 | Cc1cc(NC(=O)CS(=O)(=O)c2cn(Cc3cccc(-c4ccc(Cl)nc4)c3)c3ccccc23)no1 |  | 30 µM
8 | COc1cccc(Cn2cc(S(=O)(=O)CC(=O)Nc3cc(C)on3)c3ccccc32)c1 [VU0366971-1] | 6.54 µM | 

More lines, in order of falling EC50, values ahead:

Row | EC50 | EC50 (inactive by the depositor's call) | SMILES
9 | 10 µM |  | Cc1cc(NC(=O)CS(=O)(=O)c2cn(Cc3ccc(F)nc3)c3ccccc23)no1 [VU0404018]
10 | 5.82 µM |  | Cc1cc(NC(=O)CS(=O)(=O)c2cn(Cc3cccc(Cl)c3)c3ccccc23)no1 [VU0366968-1]
11 | 5.37 µM |  | Cc1cc(NC(=O)CS(=O)(=O)c2cn(Cc3cccc(Br)c3)c3cc(F)cc(F)c23)no1 [2-[1-[(3-bromophenyl)methyl]-4,6-bis(fluoranyl)indol-3-yl]sulfonyl-N-(5-methyl-1,2-oxazol-3-yl)ethanamide]
12 | 5.1 µM |  | Cc1cc(NC(=O)CS(=O)(=O)c2cn(Cc3cccc(Cl)c3F)c3ccccc23)no1
13 | 4.4 µM |  | Cc1cc(NC(=O)CS(=O)(=O)c2cn(Cc3cccc(-c4cc[nH]n4)c3F)c3ccccc23)no1
14 | 3.21 µM |  | Cc1cc(NC(=O)CS(=O)(=O)c2cn(Cc3cccc(-c4ccn(C)n4)c3)c3ccccc23)no1 [VU0402606-1]
15 | 2.19 µM |  | Cc1cc(NC(=O)CS(=O)(=O)c2cn(Cc3cccc(-c4cn[nH]c4)c3)c3ccccc23)no1
